# Data from the supplement of paper PMC10307832.
# How the values were obtained:
# Assay in all cases: relative viability (nuclei count vs DMSO), 5 days (fraction); higher = more cells survive
# [1] = compound: COc1cc2nc(N3CCCN(C)CC3)nc(NC3CCN(Cc4ccccc4)CC3)c2cc1OC + O=C(c1cc(Cc2n[nH]c(=O)c3ccccc23)ccc1F)N1CCN(C(=O)C2CC2)CC1 [Olaparib] (partner 8 µM)
# Method in brief: (§1)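 Lung cancer cell lines, seeded in 1536-well plates, were treated the following day by pin tool with a single drug or with five library-drug doses (not always all listed) in √10 steps on top of a fixed anchor-drug dose. Cells were fixed and nuclei stained in one step after 5 days, and nuclei were counted. Relative viability is the nuclei count for treated wells divided by that for vehicle wells, reported as medians of duplicate plates.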
# [2] = compound: COc1cc2nc(N3CCCN(C)CC3)nc(NC3CCN(Cc4ccccc4)CC3)c2cc1OC + CS(=O)(=O)N1CCN(Cc2cc3nc(-c4cccc5[nH]ncc45)nc(N4CCOCC4)c3s2)CC1 [Pictilisib] (partner 1 µM)
# Method in brief: as §1
# AZD6482 + Dasatinib = compound: Cc1cc([C@@H](C)Nc2ccccc2C(=O)O)c2nc(N3CCOCC3)cc(=O)n2c1 [AZD6482] + Cc1nc(Nc2ncc(C(=O)Nc3c(C)cccc3Cl)s2)cc(N2CCN(CCO)CC2)n1 [Dasatinib] (partner 0.075 µM)
# Method in brief: as §1
# [3] = compound: COc1cc2nc(N3CCCN(C)CC3)nc(NC3CCN(Cc4ccccc4)CC3)c2cc1OC + CC(C)C[C@H](NC(=O)[C@H](Cc1ccccc1)NC(=O)c1cnccn1)B(O)O [Bortezomib] (partner 0.002 µM)
# Method in brief: as §1
Cell Line,relative viability ([1]; first compound 0.2 µM),relative viability ([1]; first compound 0.6325 µM),relative viability ([1]; first compound 2 µM),relative viability ([1]; first compound 6.325 µM),relative viability ([2]; first compound 0.2 µM),relative viability ([2]; first compound 0.6325 µM),relative viability ([2]; first compound 2 µM),relative viability ([2]; first compound 6.325 µM),relative viability (AZD6482 + Dasatinib; first compound 0.08 µM),relative viability (AZD6482 + Dasatinib; first compound 0.253 µM),relative viability (AZD6482 + Dasatinib; first compound 0.8 µM),relative viability (AZD6482 + Dasatinib; first compound 2.53 µM),relative viability (AZD6482 + Dasatinib; first compound 8 µM),relative viability ([3]; first compound 0.2 µM),relative viability ([3]; first compound 0.6325 µM),relative viability ([3]; first compound 2 µM),relative viability ([3]; first compound 6.325 µM)
201T,0.849,0.853,0.875,0.802,0.742,0.717,0.64,0.683,0.645,0.542,0.627,0.416,0.395,1.13,1.14,1.17,1.07
A549,0.309,0.374,0.206,0.368,0.551,0.569,0.622,0.473,–,–,–,–,–,–,–,–,–
A-427,0.708,0.705,0.833,0.768,0.755,0.728,0.679,0.675,0.717,0.615,0.715,–,0.754,0.962,0.869,1.09,0.957
ABC-1,1.17,0.768,0.983,0.915,0.618,0.926,0.699,0.611,0.5,0.591,0.699,0.496,0.53,0.26,0.339,0.264,0.328
BEN,1.01,1.07,1.12,1.07,0.571,0.643,0.69,0.572,0.358,0.269,0.39,0.216,0.339,0.781,0.952,1.09,0.883
CAL-12T,0.676,0.689,0.8,0.699,0.402,0.53,0.388,0.34,0.403,0.393,0.332,0.21,0.171,0.996,1.32,1.05,0.833
COR-L23,0.348,0.38,0.414,0.339,0.843,0.701,0.931,0.772,0.338,0.374,0.47,0.292,0.326,0.956,0.884,1.11,0.933
COR-L 105,0.632,0.626,0.624,0.372,0.349,0.435,0.34,0.327,0.287,0.318,0.325,0.262,0.273,0.787,0.835,0.591,0.404
Calu-6,0.598,0.542,0.591,0.537,0.924,0.978,0.953,0.743,–,–,–,–,–,0.976,0.942,1.03,0.948
ChaGo-K-1,0.386,0.44,0.375,0.39,0.752,0.87,1.12,0.49,0.647,0.501,0.79,0.589,0.532,0.995,1.13,1.16,0.838
EBC-1,0.698,0.647,0.757,0.5,0.337,0.392,0.248,0.132,–,–,–,–,–,0.469,0.476,0.437,0.265
EKVX,0.838,0.873,0.808,0.776,0.466,0.46,0.357,0.4,0.465,0.507,0.504,0.304,0.3,1.09,0.993,1.18,0.963
EMC-BAC-2,0.494,0.406,0.438,0.511,0.559,0.555,0.564,0.57,0.253,0.327,0.275,0.257,0.271,1.09,1.12,1.11,1.09
EPLC-272H,0.738,0.888,0.767,0.329,0.314,0.439,0.303,0.305,0.253,0.291,0.311,0.172,0.124,0.897,0.793,0.918,0.658
H3255,0.592,0.552,0.541,0.562,0.487,0.397,0.529,0.422,0.339,0.342,0.476,0.345,0.322,0.782,0.944,0.726,0.43
HARA,0.79,1.1,0.832,1.05,0.395,0.53,0.453,0.308,0.268,0.302,0.232,0.188,0.157,1.03,1.07,1.28,1.11
HCC-15,0.738,0.674,0.754,0.695,0.744,0.883,0.701,0.618,0.566,0.545,0.594,0.385,0.598,1.03,1.02,1.12,0.881
HCC-44,0.974,1.02,0.953,0.977,0.616,0.693,0.563,0.605,–,–,–,–,–,0.935,0.85,0.991,0.909
HCC-78,0.944,0.66,0.787,0.831,0.206,0.212,0.207,0.188,0.298,0.207,0.254,0.192,0.199,0.511,0.434,0.535,0.504
HCC-366,0.451,0.304,0.376,0.294,0.15,0.168,0.098,0.154,0.659,0.564,0.733,0.271,0.482,1.02,1,1.03,0.927
